{
  "source": "patent EP0341019A2",
  "about": "“Polyether antibiotic” (priority 1988, dated 1989)",
  "key": {"Proteus sp.": {"test_system": "Proteus sp.", "assay_type": "cell-based", "conditions": "24 h"}, "Escherichia coli N10": {"test_system": "Escherichia coli N10", "assay_type": "cell-based", "conditions": "N10, 24 h"}, "[1]": {"test_system": "Eimeria acervulina Strain 59 And E. tenella Strain 155", "test": "anticoccidial feed test in infected chickens, ionophore-sensitive strains", "assay_type": "in vivo"}, "[2]": {"test_system": "Bacteroides melaninogenicus 1856/28", "assay_type": "cell-based", "conditions": "Prevotella intermedia, 1856/28, 24 h"}, "Eimeria tenella": {"test_system": "Eimeria tenella", "test": "in vitro tissue-culture anticoccidial screen", "assay_type": "cell-based", "conditions": "in vitro tissue-culture screen against Eimeria tenella", "description": "Anticoccidial activity is an important property of the A82810 compounds. For example, in an in vitro tissue-culture screen against Eimeria tenella, A82810 was active at <0.0025 mcg/mL, propionyl-A82810 was active at 0.05 mcg/mL and acetyl-A82810 was active at 0.01 mcg/mL."}, "[3]": {"test_system": "Bacteroides vulgatis 1211", "assay_type": "cell-based", "conditions": "Bacteroides, 1211, 24 h"}, "[4]": {"test_system": "Bacteroides thetaiotaomicron 1438", "assay_type": "cell-based", "conditions": "24 h"}, "[5]": {"test_system": "Herpes simplex viruses (HSV I)", "test": "antiviral tissue-culture test", "assay_type": "cell-based, Herpes simplex virus"}, "Serratia marcescens X99": {"test_system": "Serratia marcescens X99", "assay_type": "cell-based", "conditions": "X99, 24 h"}, "[6]": {"test_system": "Pseudomonas aeruginosa X528", "assay_type": "cell-based", "conditions": "X528, 24 h"}, "[7]": {"test_system": "Streptococcus faecium X66", "assay_type": "cell-based", "conditions": "Enterococcus faecium, X66, 24 h"}},
  "data": [
    {"molecule": "CC[C@@H](O)[C@]1(C)C[C@H](C)[C@@](O)([C@H]2C[C@H](C)[C@H]([C@]3(C)C[C@@H](O[C@H]4CC[C@H](OC)[C@@H](C)O4)[C@H]([C@]4(C)CC[C@@]5(O[C@H]([C@@H](C)[C@@H](OC)[C@H](C)C(=O)O)[C@H](C)[C@@H](OC)[C@H]5C)O4)O3)O2)O1", "note": "[Example A82810]", "values": [
      {"measurement": "MIC", "setting": "Proteus sp.", "value": "> 128", "unit": "µg/mL"},
      {"measurement": "MIC", "setting": "Escherichia coli N10", "value": 1, "unit": "µg/mL"},
      {"measurement": "TOTAL LESION SCORE", "setting": "[1]; 0.5 ppm", "value": 12.1},
      {"measurement": "WEIGHT GAIN, PERCENT OF CONTROL", "setting": "[1]; 0.5 ppm", "value": 60, "unit": "% OF CONTROL"},
      {"measurement": "TOTAL LESION SCORE", "setting": "[1]; 1 ppm", "value": 10.7},
      {"measurement": "WEIGHT GAIN, PERCENT OF CONTROL", "setting": "[1]; 1 ppm", "value": 81, "unit": "% OF CONTROL"},
      {"measurement": "AVERAGE CECAL LESION SCORES", "setting": "[1]; 1.25 ppm", "value": 3.2},
      {"measurement": "AVERAGE INTESTINAL LESION SCORES", "setting": "[1]; 1.25 ppm", "value": 6.0},
      {"measurement": "WEIGHT GAIN, PERCENT OF CONTROL", "setting": "[1]; 1.25 ppm", "value": 87, "unit": "% OF CONTROL"},
      {"measurement": "AVERAGE CECAL LESION SCORES", "setting": "[1]; 1.5 ppm", "value": 2.6},
      {"measurement": "AVERAGE INTESTINAL LESION SCORES", "setting": "[1]; 1.5 ppm", "value": 3.6},
      {"measurement": "AVERAGE CECAL LESION SCORES", "setting": "[1]; 1.75 ppm", "value": 2.0},
      {"measurement": "AVERAGE INTESTINAL LESION SCORES", "setting": "[1]; 1.75 ppm", "value": 2.3},
      {"measurement": "WEIGHT GAIN, PERCENT OF CONTROL", "setting": "[1]; 1.75 ppm", "value": 82, "unit": "% OF CONTROL"},
      {"measurement": "MIC", "setting": "[2]", "value": 8, "unit": "µg/mL"},
      {"measurement": "active at", "setting": "Eimeria tenella", "value": "< 0.0025", "unit": "µg/mL"},
      {"measurement": "MIC", "setting": "[3]", "value": 4, "unit": "µg/mL"},
      {"measurement": "MIC", "setting": "[4]", "value": 8, "unit": "µg/mL"},
      {"measurement": "active at levels as low as", "setting": "[5]", "value": 1.56, "unit": "µg/mL"},
      {"measurement": "MIC", "setting": "Serratia marcescens X99", "value": "> 128", "unit": "µg/mL"},
      {"measurement": "MIC", "setting": "[6]", "value": 2, "unit": "µg/mL"},
      {"measurement": "pKa", "setting": "physchem", "value": 6.6},
      {"measurement": "MIC", "setting": "[7]", "value": 1, "unit": "µg/mL"}
    ]}
  ]
}
